{"source": "patent US8604024B2", "about": "“Compounds for the reduction of beta-amyloid production” (Bristol-Myers Squibb Company, priority 2011, dated 2013)", "note": "Where a name gives a salt, the structure may show the parent alone.", "data": [{"system": "Aβ1-42 production in H4 cells stably transfected with APP751 containing the Swedish mutation", "assay": "Cellular assay for inhibition of Aβ1-42 production (H4 APP751 SWE clone 8.20)", "format": "cell-based", "details": "19 h, H4 APP751 SWE clone 8.20 cells, 19 h incubation; read-out: Aβ42 cellular IC50", "description": "Cellular Assays for Inhibition of Aβ1-40 and Aβ1-42 Production\nH4 cells stably transfected with APP751 containing the Swedish mutation (H4 APP751 SWE clone 8.20, developed at BMS) were maintained in log phase through twice weekly passage at a 1:20 split. […] Following incubation for 19 h in 5% CO2 at 37° C., plates were briefly centrifuged (1000 rpm, 5 min). A 10 μl aliquot from each well was transferred to a second assay plate (Costar 3709) for Aβ40 measurements. Antibody cocktails were freshly prepared by dilution into 40 mM Tris-HCl (pH 7.4) with 0.2% BSA and added to assay plates. For Aβ42 measurements, antibodies specific for the Aβ42 neoepitope (565, developed at BMS; conjugated to the Wallac reagent (Perkin Elmer)) and the N-terminal sequence of Aβ peptide (26D6, developed at SIBIA; conjugated to APC (Perkin Elmer)) were mixed and 20 μl of the mixture was added to each well of the incubated cell plate yielding a final concentration of 0.8 ng/well 565 and 75 ng/well 26D6. For the Aβ40 measurements, antibodies specific for the Aβ40 neoepitope (TSD, developed at BMS; conjugated to the Wallac reagent (Perkin Elmer)) and 26D6 as described above were mixed and 20 μl of the mixture was added to the 10 μl aliquots which had been removed previously from the cell plate yielding a final concentration of 1.6 ng/well TSD and 17.5 ng/well 26D6. Assay plates containing antibodies were sealed with aluminum foil and incubated overnight at 4° C. Signal was determined using a Viewlux counter (Perkin Elmer) and IC50 values determined using curve fitting in CurveMaster (Excel Fit based).", "units": {"IC50": "µM"}, "values": [{"smiles": "NC1=N[C@@H]2c3cc(-c4cncnc4)ccc3CCC[C@@H]2CS1", "note": "(relative stereo) [Example 1, rel-(4aS,11bS)-10-Pyrimidin-5-yl-4,4a,5,6,7,11b-hexahydro-3-thia-1-aza-dibenzo[a,c]cyclohepten-2-ylamine, bis(2,2,2-trifluoroacetate)]", "IC50": 5.2}, {"smiles": "C[C@]12N=C(N)SC[C@H]1CCCc1ccc(-c3cncnc3)cc12", "note": "(relative stereo) [Example 2, rel-(4aS,11bS)-11b-Methyl-10-pyrimidin-5-yl-4,4a,5,6,7,11b-hexahydro-3-thia-1-aza-dibenzo[a,c]cyclohepten-2-ylamine, bis(2,2,2-trifluoroacetate)]", "IC50": 3.4}, {"smiles": "C[C@]12N=C(N)SC[C@H]1CCCc1ccc(NC(=O)c3ccc(Cl)cn3)cc12", "note": "(relative stereo) [Example 3, 5-Chloro-pyridine-2-carboxylic acid (rel-(4aS,11bS)-2-amino-11b-methyl-4,4a,5,6,7,11b-hexahydro-3-thia-1-aza-dibenzo[a,c]cyclohepten-10-yl)-amide, 2,2,2-trifluoroacetate]", "IC50": 0.034}, {"smiles": "NC1=N[C@@H]2c3cc(-c4cncnc4)cc(F)c3OCC[C@@H]2CS1", "note": "(relative stereo) [Example 4, rel-(4aS,11bS)-8-fluoro-10-pyrimidin-5-yl-4a,5,6,11b-tetrahydro-4H-7-oxa-3-thia-1-aza-dibenzo[a,c]cyclohepten-2-ylamine]", "IC50": "> 30"}, {"smiles": "C[C@]12N=C(N)SC[C@H]1CCc1ccc(-c3cncnc3)cc12", "note": "(relative stereo) [Example 5, rel-(4aS,10bS)-10b-Methyl-9-(pyrimidin-5-yl)-4a,5,6,10b-tetrahydro-4H-naphtho[1,2-d][1,3]thiazin-2-amine, bis(2,2,2-trifluoroacetate)]", "IC50": 4.6}, {"smiles": "C[C@]12N=C(N)SC[C@H]1CCc1ccc(-c3cncc(Cl)c3)cc12", "note": "(relative stereo) [Example 6, rel-(4aS,10bS)-9-(5-Chloropyridin-3-yl)-10b-methyl-4a,5,6,10b-tetrahydro-4H-naphtho[1,2-d][1,3]thiazin-2-amine bis(2,2,2-trifluoroacetate)]", "IC50": 2.6}, {"smiles": "C[C@]12N=C(N)SC[C@H]1CCc1ccc(NC(=O)c3ccc(Cl)cn3)cc12", "note": "(relative stereo) [Example 7, rel-N-((4aS,10bS)-2-Amino-10b-methyl-4a,5,6,10b-tetrahydro-4H-naphtho[1,2-d][1,3]thiazin-9-yl)-5-chloropicolinamide, 2,2,2-trifluoroacetate]", "IC50": 1.1}, {"smiles": "C[C@]12N=C(N)SC[C@H]1CCc1ccc(NC(=O)c3ncc(F)cc3F)cc12", "note": "(relative stereo) [Example 8, rel-N-((4aS,10bS)-2-Amino-10b-methyl-4a,5,6,10b-tetrahydro-4H-naphtho[1,2-d][1,3]thiazin-9-yl)-3,5-difluoropicolinamide, 2,2,2-trifluoroacetate]", "IC50": 3.1}, {"smiles": "C[C@]12N=C(N)SC[C@H]1CCc1ccc(NC(=O)c3ccc(F)cn3)cc12", "note": "(relative stereo) [Example 9, rel-N-((4aS,10bS)-2-amino-10b-methyl-4a,5,6,10b-tetrahydro-4H-naphtho[1,2-d][1,3]thiazin-9-yl)-5-fluoropicolinamide, 2,2,2-trifluoroacetate]", "IC50": 2.1}, {"smiles": "C[C@]12N=C(N)SC[C@H]1CCc1ccc(Br)cc12", "note": "(relative stereo) [Example 10, rel-(4aS,10bS)-9-Bromo-10b-methyl-4a,5,6,10b-tetrahydro-4H-naphtho[1,2-d][1,3]thiazin-2-amine]", "IC50": 13}, {"smiles": "COc1cncc(-c2ccc3c(c2)[C@@]2(C)N=C(N)SC[C@H]2CCC3)c1", "note": "(relative stereo) [Example 11, rel-(4aS,11bS)-10-(5-methoxypyridin-3-yl)-11b-methyl-4,4a,5,6,7,11b-hexahydrobenzo[6,7]cyclohepta[1,2-d][1,3]thiazin-2-amine, bis(2,2,2-trifluoroacetate)]", "IC50": 3.4}, {"smiles": "COc1cccc(-c2ccc3c(c2)[C@@]2(C)N=C(N)SC[C@H]2CCC3)c1", "note": "(relative stereo) [Example 12, rel-(4aS,11bS)-10-(3-methoxyphenyl)-11b-methyl-4,4a,5,6,7,11b-hexahydrobenzo[6,7]cyclohepta[1,2-d][1,3]thiazin-2-amine, 2,2,2-trifluoroacetate]", "IC50": 3.4}, {"smiles": "C[C@]12N=C(N)SC[C@H]1CCCc1ccc(-c3cncc(Cl)c3)cc12", "note": "(relative stereo) [Example 13, rel-(4aS,11bS)-10-(5-Chloropyridin-3-yl)-11b-methyl-4,4a,5,6,7,11b-hexahydrobenzo[6,7]cyclohepta[1,2-d][1,3]thiazin-2-amine, bis(2,2,2-trifluoroacetate)]", "IC50": 3.1}, {"smiles": "C[C@]12N=C(N)SC[C@H]1CCCc1ccc(-c3cncc(F)c3)cc12", "note": "(relative stereo) [Example 14, rel-(4aS,11bS)-10-(5-fluoropyridin-3-yl)-11b-methyl-4,4a,5,6,7,11b-hexahydrobenzo[6,7]cyclohepta[1,2-d][1,3]thiazin-2-amine, bis(2,2,2-trifluoroacetate)]", "IC50": 2.1}, {"smiles": "CC#Cc1cncc(-c2ccc3c(c2)[C@@]2(C)N=C(N)SC[C@H]2CCC3)c1", "note": "(relative stereo) [Example 15, rel-(4aS,11bS)-11b-Methyl-10-(5-(prop-1-yn-1-yl)pyridin-3-yl)-4,4a,5,6,7,11b-hexahydrobenzo[6,7]cyclohepta[1,2-d][1,3]thiazin-2-amine, bis(2,2,2-trifluoroacetate)]", "IC50": 3.6}, {"smiles": "C[C@]12N=C(N)SC[C@H]1CCCc1ccc(Br)cc12", "note": "(relative stereo) [Example 16]", "IC50": 2.5}, {"smiles": "C[C@]12N=C(N)SC[C@H]1COc1cc(F)c(-c3cncnc3)cc12", "note": "(relative stereo) [Example 17, rel-(4aR,10bS)-8-Fluoro-10b-methyl-9-(pyrimidin-5-yl)-4,4a,5,10b-tetrahydrochromeno[4,3-d][1,3]thiazin-2-amine, bis(2,2,2-trifluoroacetate)]", "IC50": 3.2}, {"smiles": "C[C@]12N=C(N)SC[C@H]1COc1cc(F)c(NC(=O)c3ccc(Cl)cn3)cc12", "note": "(relative stereo) [Example 18, rel-N-((4aR,10bS)-2-Amino-8-fluoro-10b-methyl-4,4a,5,10b-tetrahydrochromeno[4,3-d][1,3]thiazin-9-yl)-5-chloropicolinamide, 2,2,2-trifluoroacetate]", "IC50": 6.1}, {"smiles": "C[C@]12N=C(N)SC[C@H]1CCc1ccc(-c3cn[nH]c3)cc12", "note": "(relative stereo) [Example 19, rel-(4aS,10bS)-10b-Methyl-9-(1H-pyrazol-4-yl)-4a,5,6,10b-tetrahydro-4H-naphtho[1,2-d][1,3]thiazin-2-amine, bis(2,2,2-trifluoroacetate)]", "IC50": 8}, {"smiles": "Cc1cc(-c2ccc3c(c2)[C@@]2(C)N=C(N)SC[C@H]2CC3)n(C)n1", "note": "(relative stereo) [Example 20, rel-(4aS,10bS)-9-(1,3-Dimethyl-1H-pyrazol-5-yl)-10b-methyl-4a,5,6,10b-tetrahydro-4H-naphtho[1,2-d][1,3]thiazin-2-amine, bis(2,2,2-trifluoroacetate)]", "IC50": "> 30"}, {"smiles": "CC#Cc1cncc(-c2ccc3c(c2)[C@@]2(C)N=C(N)SC[C@H]2CC3)c1", "note": "(relative stereo) [Example 21, rel-(4aS,10bS)-10b-methyl-9-(5-(prop-1-yn-1-yl)pyridin-3-yl)-4,5,6,10b-tetrahydro-4H-naphtho[1,2-d][1,3]thiazin-2-amine, bis(2,2,2-trifluoroacetate)]", "IC50": 1.8}, {"smiles": "CC#Cc1cncc(-c2ccc3c(c2)[C@@]2(C)N=C(N)SC[C@H]2CCO3)c1", "note": "(relative stereo) [Example 22, rel-(4aS,11bS)-11b-methyl-10-(5-(prop-1-yn-1-yl)pyridin-3-yl)-4a,5,6,11b-tetrahydro-4H-benzo[2,3]oxepino[4,5-d][1,3]thiazin-2-amine, bis(2,2,2-trifluoroacetate)]", "IC50": 0.96}, {"smiles": "Cn1cc(-c2ccc3c(c2)[C@@]2(C)N=C(N)SC[C@H]2CCO3)cn1", "note": "(relative stereo) [Example 23, rel-(4aS,11bS)-11b-Methyl-10-(1-methyl-1H-pyrazol-4-yl)-4a,5,6,11b-tetrahydro-4H-benzo[2,3]oxepino[4,5-d][1,3]thiazin-2-amine, bis(2,2,2-trifluoroacetate)]", "IC50": 5.1}, {"smiles": "C[C@]12N=C(N)SC[C@H]1CCOc1ccc(-c3cn[nH]c3)cc12", "note": "(relative stereo) [Example 24, rel-(4aS,11bS)-11b-methyl-10-(1H-pyrazol-4-yl)-4a,5,6,11b-tetrahydro-4H-benzo[2,3]oxepino[4,5-d][1,3]thiazin-2-amine, bis(2,2,2-trifluoroacetate)]", "IC50": 8.1}, {"smiles": "C[C@]12N=C(N)SC[C@H]1CCOc1ccc(-c3cnoc3)cc12", "note": "(relative stereo) [Example 25, rel-(4aS,11bS)-10-(Isoxazol-4-yl)-11b-methyl-4a,5,6,11b-tetrahydro-4H-benzo[2,3]oxepino[4,5-d][1,3]thiazin-2-amine, 2,2,2-trifluoroacetate salt]", "IC50": 18}]}]}
